From the supplement of paper PMC9436093

How the values were obtained:
Experiment in all cases: cell viability relative to DMSO (100%) and bortezomib (0%) controls; higher = more viable / less sensitive
Conditions in all cases: 72 h
[1] = system: HAP1 HDAC1 KO + HDAC1 H141A transgene
Description: (§1)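 HAP1 cells (wildtype, HDAC1/2/3 catalytically inactive H>A mutant lines in wildtype or knockout background, HDAC3 KO, or wildtype pre-treated 6 h with 1 uM MS-275 or JQ12) were seeded onto compound-containing 384-well plates with an 8-point 1:3 dose series. ATP was read by CellTiter-Glo after 72 h. Viability is normalised to plate DMSO wells (100%) and bortezomib positive-control wells (0%) after outlier removal. Duplicate screen.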

[2] = system: HAP1 HDAC2 KO + HDAC2 H142A transgene
Description: as §1

[3] = system: HAP1 HDAC3 KO + HDAC3 H135A transgene
Description: as §1

[4] = system: HAP1 HDAC3 KO
Description: as §1

[5] = system: HAP1 WT + HDAC1 H141A transgene
Description: as §1

[6] = system: HAP1 WT + HDAC2 H142A transgene
Description: as §1

[7] = system: HAP1 WT + HDAC3 H135A transgene
Description: as §1

[8] = system: HAP1 wildtype + JQ12 1 uM (6 h pretreatment)
Description: as §1

[9] = system: HAP1 wildtype + MS-275 1 uM (6 h pretreatment)
Description: as §1

[10] = system: HAP1 wildtype
Description: as §1

Cn1cc(-c2ccc(S(=O)(=O)n3ccc(/C=C/C(=O)Nc4ccccc4N)c3)cc2)cn1 [4SC-202]
cell viability [%]
Conditions | [1] | [2] | [3] | [4] | [5] | [6] | [7] | [8] | [9] | [10]
0.0123 µM | 137 | 125 | 130 | 120 | 125 | 141 | 140 | 123 | 168 | 105
0.037 µM | 106 | 108 | 85.68 | 95.7 | 85.5 | 78.14 | 89.7 | 113 | 112 | 88.7
0.111111111 µM | 109 | 157 | 109 | 127 | 110 | 135 | 128 | 133 | 121 | 120
0.333333333 µM | 111 | 93.36 | 104 | 122.3 | 117 | 117 | 133 | 98.5 | 123 | 98.9
1 µM | 7.79 | 82.3 | -3.64 | 11.2 | -2.58 | -0.0563 | 6.41 | 10.9 | 3.53 | 22.3
3 µM | -53.5 | -4.75 | -11 | -10.7 | -21.1 | -10.7 | -13.8 | -3.08 | -1.84 | -0.806
9 µM | -23.1 | -2.31 | -9.81 | -10.9 | -15.7 | -11.2 | -10.1 | -6.3 | -6.4 | -6.67
27 µM | 14.2 | -4.84 | -4.35 | -5.87 | -7.2 | -5.99 | -6.44 | -3.68 | 0.166 | 2.64

Nc1ncn([C@H]2C[C@H](O)[C@@H](CO)O2)c(=O)n1 [decitabine]
cell viability [%]
Conditions | [1] | [2] | [3] | [4] | [5] | [6] | [7] | [8] | [9] | [10]
0.0309 µM | 106 | 105.4 | 100 | 96.5 | 95.3 | 102 | 105 | 92.9 | 107 | 104
0.0926 µM | 117 | 104 | 111 | 103 | 96.2 | 109 | 117 | 98 | 82.5 | 96.6
0.277777778 µM | 93.4 | 89.47 | 115 | 125 | 68.1 | 80.5 | 116 | 72.8 | 71.3 | 110
0.833333333 µM | 51.5 | 37.5 | 148 | 155 | 27.2 | 44.3 | 153 | 50.9 | 40.43 | 141
2.5 µM | 24.3 | 10.8 | 148 | 144 | -11.5 | 5.61 | 119.46 | 15.9 | 9.68 | 115
7.5 µM | 0.764 | 5.27 | 96.2 | 112 | 0.523 | 4.31 | 49.5 | 1.97 | 9.13 | 60.8
22.5 µM | 5.07 | -5.41 | 114 | 123 | -11.1 | 0.159 | 58.5 | 3.44 | 2.79 | 50.1
67.5 µM | 19.6 | 9.97 | 108 | 147 | 1.73 | 7.07 | 61.2 | 1.41 | 10.8 | 47.2
